The text below walks through data of patent US20240082286A1, “COMBINATION THERAPIES FOR TREATMENT OF T-CELL LYMPHOMAS” (Otsuka Pharmaceutical Co., Ltd., priority 2022, published 2024).

For assay [1], the system named is KARPAS-299 xenograft mouse model. Kind of assay: Gene expression changes in KARPAS-299 xenografts. Format: in vivo. The following applies: treated for five days, FIG. 12. Here is the method:
KARPAS-299 xenograft mouse model was prepared by injecting KARPAS-299 cells. The mice bearing the KARPAS-299 xenografts were treated with decitabine (DAC) and/or tolinapant for five days. The tumor cells were collected and analyzed for gene expression changes (FIG. 12).

Assay [2] relates to RIPK3. Kind of assay: RIPK3 expression by western blot after decitabine treatment, CT26 cells. The following applies: 0.01, 0.1, 1 μM decitabine for 2 days, FIG. 2. Format: cell-based, mouse. The procedure:
Two types of mouse cell lines (BW5147.G.1.4, a T cell lymphoma from DSMZ (Braunschweig, Germany) and CT26) were treated with 0.01, 0.1, 1 μM or no decitabine (DAC) for 2 days.

Another assay deals with LINE-1. The assay is described as follows: Methylation level of LINE-1 after decitabine treatment. Format: cell-based, human. The following applies: 0.01, 0.1, 1 μM decitabine for 4 days; FIG. 3 D.
The next assay deals with H9 cells. Kind of assay: IFNγ release, electrochemiluminescence immunoassay (Meso Scale Discovery). Format: cell-based, human. The following applies: decitabine alone 0.001-10 μM for 48 hours; FIG. 4. The procedure:
Human T-cell lymphoma (H9) cell line was treated with decitabine (DAC) (0.001, 0.003, 0.01, 0.03, 0.1, 0.3, 1, 3 and 10 μM) for 48 hours, and the release of IFNγ was measured an electrochemiluminescence immunoassay (Meso Scale Discovery). […] Thus, the treatment by decitabine will potentially result in improved response rate to the tolinapant treatment.

For assay [3], the system named is RIPK3. Kind of assay: RIPK3 western blotting of KARPAS-299 xenograft cell lysates. Format: in vivo, mouse. The following applies: five days treatment, FIG. 13. Background: In western blotting, separated proteins are transferred to a membrane and probed.
The test system of a further assay is RIPK3 gene promoter. Kind of assay: Methylation status of RIPK3 gene by pyrosequencing (EpigenDX). Format: cell-based, human. The following applies: H9, Karpas-299, Sup-M2, Sup-T1 cell lines; 0.01, 0.1, 1 μM decitabine for 4 days; FIG. 3 B and C. The procedure: The DNA of human H9, Karpas-299, Sup-M2 (from DSMZ), and Sup-T1 (from ECACC) cell lines were sequenced to identify methylation status of the RIPK3 gene by pyrosequencing (EpigenDX). […] These cell lines were treated with 0.01, 0.1, and 1 μM decitabine (DAC) for 4 days, and DNA of the cells were sequenced to identify methylation status of the RIPK3 gene by pyrosequencing (EpigenDX).

Assay [4] has as its system RIPK3. The assay is described as follows: RIPK3 expression by western blot after decitabine treatment, Karpas-299 cells. Format: cell-based, human. The following applies: 0.01, 0.1, 1 μM decitabine for 4 days, FIG. 2.
In the next assay the test system is DNMT1. The assay is described as follows: Western blotting of BW5147.G.1.4 lysates, DNMT1. Format: cell-based, mouse. The following applies: 48 hours, as the concentration of decitabine increased, FIG. 8. Here is the method:
After 48 hours, the cell was lysated and interferon signaling and PD markers were analyzed by Western blotting, as shown in FIG. 8.

In the next assay the test system is CT26 cells. The assay is described as follows: Lytic cell death by real-time microscopy (IncuCyte) in CT26 control and RIPK3 re-expressed CT26 cells. Format: cell-based, mouse. Particulars: 1 μM tolinapant; RIPK3 re-expressed CT26 cells versus CT26 control cells; FIG. 1B. The procedure: CRISPR activation (CRISPRa) was used to re-express RIPK3 in the CT26 line (from ATCC) (FIG. 1A). […] The lytic cell death upon treatment of tolinapant was measured for the CT26 control cells and the RIPK3 re-expressed CT26 cells, by real-time microscopy (IncuCyte) assays (FIG. 1B).

The next assay has as its system clAP1. Kind of assay: Western blotting of BW5147.G.1.4 lysates, clAP1. The following applies: 48 hours, when tolinapant was added to decitabine, FIG. 8. Format: cell-based, mouse. The procedure: After 48 hours, the cell was lysated and interferon signaling and PD markers were analyzed by Western blotting, as shown in FIG. 8. From the western blot, it was confirmed that the expression of DNMT1 was reduced as the concentration of decitabine increased, and the expression of clAP1 was suppressed when tolinapant was added.

SMILES strings stand for the structures.

`Nc1ncn([C@H]2C[C@H](O)[C@@H](CO)O2)c(=O)n1` [decitabine, 5-aza-2′-deoxycytidine]: the “gene expression changes in tumor cells” value in assay [1] was “upregulation of interferons, and other cytokines/chemokines and cancer testis antigens”. The RIPK3 expression entry in the assay with RIPK3 [2] and in the assay with RIPK3 [4] was “RIPK3 expression was detected” each time. Also, the “methylation of LINE-1” value in the assay on LINE-1 was “demethylation of LINE-1”. Further, in the assay on H9 cells, the “IFNγ released from H9 cells” value was “increased”. Further, the “RIPK3 re-expression by western blotting” value with RIPK3 [3] is on record as “re-expression of RIPK3 was also confirmed”. Further, the “methylation of RIPK3 gene promoter” value in the assay on RIPK3 gene promoter was “demethylation of RIPK3 gene promoter”. Also, the “expression of DNMT1” value in the assay on DNMT1 was “reduced”.
As to `C[C@@H]1CN(CC(=O)N2CC(C)(C)c3nc(CO)c(Cc4ccc(F)cc4)cc32)[C@@H](CN2CCOC[C@H]2C)CN1` [tolinapant, 1-(6-(4-fluorobenzyl)-5-(hydroxymethyl)-3,3-dimethyl-2,3-dihydro-1H-pyrrolo[3,2-b]pyridin-1-yl)-2-((2R,5R)-5-methyl-2-(((R)-3-methylmorpholino)methyl)piperazin-1-yl)ethan-1-one], the “lytic cell death upon treatment of tolinapant” value in the assay on CT26 cells is “higher lytic cell death”. Moreover, in the assay on clAP1, the “expression of clAP1” value was “suppressed”.
